Results published in patent publication US7851637B2, “Compounds and methods for inhibiting the interaction of BCL proteins with binding partners” (Infinity Pharmaceuticals, Inc., priority 2004, dated 2010).

Key:
Bcl-xL = Bcl-xL (Homo sapiens, UniProt Q07817); test: Bcl-xL binding affinity analysis (fluorescence polarization binding assay); set-up: scale not given here
Text: (§1) Bcl-2 and Bcl-xL binding can be determined using a variety of known methods. One such assay is a sensitive and quantitative in vitro binding assay using fluorescence polarization (FP) described by Wang, J. -L.; Zhang, Z -J.; Choksi, S.; Sjam. S.; Lu, Z.; Croce, C. M.; Alnenri, E. S.; Komgold, R.; Huang, Z. Cell permeable Bcl-2 binding peptides: a chemical approach to apoptosis induction in tumor cells. Cancer Res. 2000, 60, 1498-1502).
(§2) Bcl-2 and Bcl-xL binding affinity analysis data is presented below for various compounds of the invention.

Bcl-2 = Bcl-2 (Homo sapiens, UniProt P10415); test: Bcl-2 binding affinity analysis (fluorescence polarization binding assay)
Chain of Bcl-2 (P10415 whole entry): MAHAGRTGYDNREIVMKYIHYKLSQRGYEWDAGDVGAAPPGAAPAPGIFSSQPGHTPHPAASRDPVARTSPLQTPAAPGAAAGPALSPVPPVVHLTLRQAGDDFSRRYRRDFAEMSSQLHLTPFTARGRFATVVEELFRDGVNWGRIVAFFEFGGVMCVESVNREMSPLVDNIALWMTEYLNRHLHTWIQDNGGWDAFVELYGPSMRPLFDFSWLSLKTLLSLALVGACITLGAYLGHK
Text: as §1, §2

Chain of Bcl-xL (Q07817 whole entry): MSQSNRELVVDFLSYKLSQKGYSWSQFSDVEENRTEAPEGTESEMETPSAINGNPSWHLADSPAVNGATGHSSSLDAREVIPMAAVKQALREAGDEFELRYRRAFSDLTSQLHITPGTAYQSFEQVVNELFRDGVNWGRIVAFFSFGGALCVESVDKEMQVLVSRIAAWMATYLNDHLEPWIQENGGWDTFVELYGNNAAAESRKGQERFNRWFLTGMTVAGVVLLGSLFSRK

Compound | Bcl-XL binding affinity Ki (Bcl-xL) | Ki (Bcl-2)
CC(C)C[C@@H](CN(C)C)N(Cc1ccccc1)Cc1cccc(CN2O[C@@H](CO)[C@@H]([C@H](C)O)[C@H]2C(=O)NCCCn2ccnc2)c1 [Compound 529] | ♯ | 6000 to 50000 nM
C[C@H](O)[C@@H]1[C@H](CO)ON(Cc2cccc(CN(CCN(C)C)Cc3ccccc3)c2)[C@@H]1C(=O)NC1CCN(C(=O)OC(C)(C)C)CC1 [Compound 528] | ♯ | 6000 to 50000 nM
C[C@@H]1[C@@H](NC(=O)[C@@H]2[C@H]([C@H](C)O)[C@H](CO)ON2CCCCN(CCCc2ccccc2)CCN(C)C)C[C@H]2C[C@@H]1C2(C)C [Compound 545] | ♯ | 800 to 6000 nM
C[C@@H]1[C@@H](NC(=O)[C@@H]2C(CO)[C@H]([C@H](C)O)ON2Cc2cccc(C#CC(C)(O)c3ccccc3)c2)C[C@H]2C[C@@H]1C2(C)C (stereo partly shown) [Compound 35] | ♯ | > 50000 nM
C[C@H](O)[C@@H]1[C@H](CO)ON(Cc2cccc(CN(CCN(C)C)Cc3ccccc3)c2)[C@@H]1C(=O)N[C@H]1CCN(Cc2ccccc2)C1 [Compound 518] | ♯ | 6000 to 50000 nM
CNCC#Cc1cccc(CN2O[C@@H](CO)[C@@H]([C@H](C)O)[C@H]2C(=O)N[C@H]2C[C@H]3CC([C@@H]2C)C3(C)C)c1 [Compound 50] | ♯ | 800 to 6000 nM
CC(C)C[C@@H](CN(C)C)N(Cc1ccccc1)Cc1cccc(CN2O[C@@H](CO)[C@@H]([C@H](C)O)[C@H]2C(=O)NC(C)C)c1 [Compound 539] | ♯ | 6000 to 50000 nM
C[C@@H](O)[C@H]1[C@@H](CO)ON(Cc2cccc(C#CC(O)c3ccoc3)c2)[C@H]1C(=O)NCCCN(C)c1ccccc1 (stereo partly shown) [Compound 36] | ♯♯ | 800 to 6000 nM
CC(O)C1[C@H](CO)ON(Cc2cccc(C#Cc3ccccn3)c2)[C@@H]1C(=O)N[C@H]1C[C@H]2CC([C@@H]1C)C2(C)C (stereo partly shown) [Compound 32] | ♯ | 800 to 6000 nM
C[C@@H]1[C@@H](NC(=O)[C@@H]2[C@H]([C@H](C)O)[C@H](CO)ON2Cc2cccc(-c3ccc(C(=O)N(C)C)cc3)c2)C[C@H]2C[C@@H]1C2(C)C [Compound 118] | ♯ | < 800 nM
C[C@@H]1[C@@H](NC(=O)[C@@H]2[C@H]([C@H](C)O)[C@H](CO)ON2Cc2cccc(CN(CCc3ccccc3)CCN(C)C)c2)C[C@H]2C[C@@H]1C2(C)C [Compound 209] | ♯ | < 800 nM
C[C@@H]1[C@@H](NC(=O)[C@@H]2[C@H]([C@H](C)O)[C@H](CO)ON2CCCCN(CCN(C)C)Cc2ccccc2Cl)C[C@H]2C[C@@H]1C2(C)C [Compound 549] | ♯ | 800 to 6000 nM
CC(C)C[C@@H](CN(C)C)NC(=O)c1cccc(-c2cccc(CN3O[C@@H](CO)[C@@H]([C@H](C)O)[C@H]3C(=O)N[C@H]3C[C@H]4C[C@@H]([C@@H]3C)C4(C)C)c2)c1 [Compound 97] | ♯♯ | 800 to 6000 nM
CCCCC[C@H](O)C#Cc1ccc(CN2O[C@@H](CO)[C@@H]([C@H](C)O)[C@H]2C(=O)NCCCN(C)c2ccccc2)cc1 [Compound 46] | ♯ | > 50000 nM
C[C@H](O)[C@@H]1[C@H](CO)ON(Cc2cccc(CN(CCN(C)C)Cc3ccccc3)c2)[C@@H]1C(=O)NCCCN(C)C [Compound 517] | ♯ | 6000 to 50000 nM
COCCNC(=O)c1cccc(-c2cccc(CN3O[C@@H](CO)[C@@H]([C@H](C)O)[C@H]3C(=O)N[C@H]3C[C@H]4C[C@@H]([C@@H]3C)C4(C)C)c2)c1 [Compound 153] | ♯ | < 800 nM
C[C@@H]1[C@@H](NC(=O)[C@@H]2[C@H]([C@H](C)O)[C@H](CO)ON2Cc2cccc(-c3cccc(C(=O)NCCCn4ccnc4)c3)c2)C[C@H]2C[C@@H]1C2(C)C [Compound 123] | ♯ | < 800 nM
COc1c(CN2O[C@@H](CO)[C@@H]([C@H](C)O)[C@H]2C(=O)N[C@H]2C[C@H]3C[C@@H]([C@@H]2C)C3(C)C)cccc1-c1cccc(C(=O)NCCN(C)C)c1 [Compound 165] | ♯ | < 800 nM
C[C@@H]1C(NC(=O)[C@@H]2[C@H]([C@H](C)O)[C@H](CO)ON2Cc2cccc(-c3ccc(NCCN(C)C)cc3)c2)C[C@@H]2CC1C2(C)C (stereo partly shown) [Compound 276] | ♯ | < 800 nM

The next lines start with the values.

Bcl-XL binding affinity Ki (Bcl-xL) | Ki (Bcl-2) | Compound
♯♯ | < 800 nM | CC(C)CNC(=O)c1cccc(-c2cccc(CN3O[C@@H](CO)[C@@H]([C@H](C)O)[C@H]3C(=O)N[C@H]3C[C@H]4C[C@@H]([C@@H]3C)C4(C)C)c2)c1 [Compound 151]
♯ | < 800 nM | CCCNC(=O)c1ccc(-c2cccc(CN3O[C@@H](CO)[C@@H]([C@H](C)O)[C@H]3C(=O)N[C@H]3C[C@H]4C[C@@H]([C@@H]3C)C4(C)C)c2)cc1 [Compound 299]
♯ | < 800 nM | CC(O)C1C(CO)ON(Cc2cccc(CN(CCN(C)C)Cc3ccccc3-c3cccc(F)c3)c2)C1C(=O)NC1CC2CC(C1C)C2(C)C (stereo not shown) [Compound 342]
♯ | < 800 nM | CC(C)CC(CN(C)C)NCc1cccc(CN2O[C@@H](CO)C([C@H](C)O)[C@H]2C(=O)NC2CC3CC([C@@H]2C)C3(C)C)c1 (stereo partly shown) [Compound 223]
♯ | < 800 nM | CC(C)CC(CN(C)C)N(Cc1cccc(CN2OC(CO)C(C(C)O)C2C(=O)NC2CC3CC(C2C)C3(C)C)c1)Cc1ccccc1N1CCN(C)CC1 (stereo not shown) [Compound 315]
♯ | < 800 nM | C[C@@H](O)[C@H]1[C@@H](CO)ON(Cc2cccc(C#CC(O)c3ccc(-c4ccccn4)cc3)c2)[C@H]1C(=O)NCCCN(C)c1ccccc1 (stereo partly shown) [Compound 252]
♯ | < 800 nM | C[C@@H]1[C@@H](NC(=O)[C@@H]2[C@H]([C@H](C)O)[C@H](CO)ON2Cc2cccc(N3CCN(C(=S)NCc4ccccc4)CC3)c2)C[C@H]2C[C@@H]1C2(C)C [Compound 263]
♯ | < 800 nM | C[C@@H]1[C@@H](NC(=O)[C@@H]2[C@H]([C@H](C)O)[C@H](CO)ON2Cc2cccc(-c3cccc(C(=O)NCCO)c3)c2)C[C@H]2C[C@@H]1C2(C)C [Compound 218]
♯ | < 800 nM | CC(O)C1C(CO)ON(Cc2cccc(CN(CCN(C)C)Cc3ccccc3N3CCOCC3)c2)C1C(=O)NC1CC2CC(C1C)C2(C)C (stereo not shown) [Compound 364]
♯ | < 800 nM | C[C@@H]1[C@@H](NC(=O)[C@@H]2[C@H]([C@H](C)O)[C@H](CO)ON2Cc2cccc(CN(CCN(C)C)C3CCCCC3)c2)C[C@H]2C[C@@H]1C2(C)C [Compound 211]
♯ | < 800 nM | C[C@@H]1[C@@H](NC(=O)[C@@H]2[C@H]([C@H](C)O)[C@H](CO)ON2Cc2cccc(-c3cccc(C(=O)NCCN(CCO)CCO)c3)c2)C[C@H]2C[C@@H]1C2(C)C [Compound 131]
♯ | < 800 nM | COc1ccc(O)c(CN(Cc2cccc(CN3OC(CO)C(C(C)O)C3C(=O)NC3CC4CC(C3C)C4(C)C)c2)C(CC(C)C)CN(C)C)c1 (stereo not shown) [Compound 332]
♯ | < 800 nM | C[C@@H]1[C@@H](NC(=O)[C@@H]2[C@H]([C@H](C)O)[C@H](CO)ON2Cc2cccc(-c3cccc(C(=O)NCCN4CCCCC4)c3)c2)C[C@H]2C[C@@H]1C2(C)C [Compound 105]
♯ | < 800 nM | C[C@@H]1[C@@H](NC(=O)[C@@H]2[C@H]([C@H](C)O)[C@H](CO)ON2Cc2cccc(-c3cccc(C(=O)NCCN(C)C)c3)c2)C[C@H]2C[C@@H]1C2(C)C [Compound 107]
♯ | < 800 nM | Cc1ccccc1CN(CCN(C)C)Cc1cccc(CN2OC(CO)C(C(C)O)C2C(=O)NC2CC3CC(C2C)C3(C)C)c1 (stereo not shown) [Compound 372]
♯ | < 800 nM | CC(O)C1C(CO)ON(Cc2cccc(C(=O)NCCc3ccccc3)c2)C1C(=O)NC1CC2CC(C1C)C2(C)C (stereo not shown) [Compound 503]
♯ | < 800 nM | COc1cccc(CN(Cc2cccc(CN3OC(CO)C(C(C)O)C3C(=O)NC3CC4CC(C3C)C4(C)C)c2)C(CC(C)C)CN(C)C)c1OC (stereo not shown) [Compound 304]
♯ | < 800 nM | C[C@@H]1[C@@H](NC(=O)[C@@H]2[C@H]([C@H](C)O)[C@H](CO)ON2Cc2cccc(-c3cccc(C(=O)N[C@@H]4CCN(C)C4)c3)c2)C[C@H]2C[C@@H]1C2(C)C [Compound 137]
♯♯ | < 800 nM | C[C@@H]1[C@@H](NC(=O)[C@@H]2[C@H]([C@H](C)O)[C@H](CO)ON2Cc2cccc(-c3ccc(-n4ccnc4)cc3)c2)C[C@H]2C[C@@H]1C2(C)C [Compound 117]
